According to ChEMBL document CHEMBL1201862, “PubChem BioAssay data set” (2004):
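Following 48 hours of exposure in 96-well plates, responses at five concentrations were used to interpolate endpoints linearly. The concentration for 50% growth inhibition is given as GI50.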 Calls of active or inactive are those of the source. No stated cut-off is given here; in the data, active = GI50 up to about 1.1 µM and inactive = higher.

Key:
Assay in all cases: DTP human tumour cell line panel, 48 h
OVCAR-3 = system: OVCAR-3
ACHN = system: ACHN
DU-145 = system: DU-145
SK-OV-3 = system: SK-OV-3
SNB-75 = system: SNB-75
COLO 205 = system: COLO 205
PC-3 = system: PC-3
Hs-578T = system: Hs-578T
786-0 = system: 786-0
MDA-MB-231 = system: MDA-MB-231
SNB-19 = system: SNB-19
EKVX = system: EKVX
CCRF-CEM = system: CCRF-CEM
UO-31 = system: UO-31
MDA-MB-435 = system: MDA-MB-435
UACC-62 = system: UACC-62
HOP-62 = system: HOP-62
SK-MEL-28 = system: SK-MEL-28
RXF 393 = system: RXF 393
HOP-92 = system: HOP-92

Measured: GI50

COc1ccc(/C=N/n2c(C)n[nH]c2=O)c(OC)c1
inactive: OVCAR-3 > 100 µM | ACHN > 100 µM | DU-145 71.6 µM | SK-OV-3 > 100 µM | SNB-75 > 100 µM | COLO 205 > 100 µM | PC-3 > 100 µM | Hs-578T 3.08 µM | 786-0 > 100 µM | MDA-MB-231 > 100 µM | SNB-19 > 100 µM | EKVX 83 µM | CCRF-CEM > 100 µM | UO-31 > 100 µM | MDA-MB-435 90.4 µM | UACC-62 35.2 µM | HOP-62 > 100 µM | SK-MEL-28 > 100 µM

CC(C)(Oc1ccccc1)C(=O)Sc1c(-c2ccccc2)c(=O)n(-c2ccccc2)c(=S)n1-c1ccccc1
inactive: OVCAR-3 32 µM | ACHN 33.1 µM | DU-145 95.9 µM | SK-OV-3 26.7 µM | SNB-75 > 100 µM | COLO 205 39.8 µM | RXF 393 26.4 µM | Hs-578T 24.2 µM | 786-0 31.2 µM | MDA-MB-231 28.8 µM | SNB-19 47.2 µM | HOP-92 > 100 µM | EKVX > 100 µM | CCRF-CEM 25.9 µM | UO-31 65.3 µM | MDA-MB-435 20.6 µM | UACC-62 80 µM | HOP-62 22 µM | SK-MEL-28 49.7 µM

Cc1cc(OP2(=O)NCc3ccncc3O2)ccc1Cl (configuration not stated)
inactive: OVCAR-3 > 100 µM | ACHN > 100 µM | DU-145 > 100 µM | SNB-75 > 100 µM | COLO 205 > 100 µM | PC-3 > 100 µM | RXF 393 > 100 µM | 786-0 > 100 µM | MDA-MB-231 > 100 µM | SNB-19 > 100 µM | HOP-92 > 100 µM | EKVX > 100 µM | CCRF-CEM 44.5 µM | UO-31 > 100 µM | MDA-MB-435 > 100 µM | UACC-62 > 100 µM | HOP-62 > 100 µM | SK-MEL-28 > 100 µM

O/N=C1/CCCCCC1NO (configuration not stated)
inactive: OVCAR-3 > 100 µM | ACHN > 100 µM | DU-145 > 100 µM | SK-OV-3 > 100 µM | COLO 205 > 100 µM | PC-3 > 100 µM | RXF 393 > 100 µM | Hs-578T > 100 µM | 786-0 > 100 µM | MDA-MB-231 > 100 µM | SNB-19 > 100 µM | HOP-92 > 100 µM | EKVX > 100 µM | UO-31 > 100 µM | MDA-MB-435 > 100 µM | UACC-62 > 100 µM | HOP-62 > 100 µM | SK-MEL-28 > 100 µM

COC(=O)c1ccccc1/C=C1\Cc2ccc3c(c2C1=O)CCCC3
inactive: OVCAR-3 > 100 µM | ACHN > 100 µM | DU-145 > 100 µM | SK-OV-3 > 100 µM | SNB-75 > 100 µM | COLO 205 > 100 µM | PC-3 > 100 µM | Hs-578T > 100 µM | 786-0 > 100 µM | MDA-MB-231 > 100 µM | SNB-19 > 100 µM | EKVX > 100 µM | CCRF-CEM > 100 µM | UO-31 > 100 µM | MDA-MB-435 > 100 µM | UACC-62 > 100 µM | HOP-62 > 100 µM | SK-MEL-28 > 100 µM

CCN(CC)CCCNc1c2c(Cl)cc(Cl)cc2nc2nc(O)nc(C)c12
inactive: OVCAR-3 77.6 µM | ACHN > 100 µM | DU-145 > 100 µM | SK-OV-3 25.6 µM | COLO 205 45.3 µM | PC-3 30.7 µM | RXF 393 > 100 µM | Hs-578T 47.5 µM | 786-0 18.7 µM | MDA-MB-231 18.5 µM | SNB-19 19.5 µM | HOP-92 57.3 µM | EKVX > 100 µM | CCRF-CEM 34.5 µM | UO-31 > 100 µM | MDA-MB-435 21.3 µM | UACC-62 68.2 µM | HOP-62 23.2 µM | SK-MEL-28 30.6 µM

COC(=O)C1=C(C)NC(C)=C(C(=O)OC)C1c1cccc(NO)c1
inactive: OVCAR-3 16 µM | ACHN 12.8 µM | DU-145 22 µM | SK-OV-3 > 100 µM | COLO 205 16.7 µM | PC-3 15 µM | RXF 393 13.9 µM | Hs-578T 18.4 µM | 786-0 15 µM | MDA-MB-231 16.6 µM | SNB-19 > 100 µM | HOP-92 11.5 µM | EKVX 22.2 µM | CCRF-CEM 3.79 µM | UO-31 11.5 µM | MDA-MB-435 16.8 µM | UACC-62 17.5 µM | HOP-62 32.3 µM | SK-MEL-28 15.1 µM

CCCCC[C@H]1CC=CC(=O)O1
inactive: OVCAR-3 3.5 µM | ACHN 7.13 µM | DU-145 5.83 µM | SK-OV-3 10.8 µM | COLO 205 3.53 µM | PC-3 7.93 µM | RXF 393 2.33 µM | Hs-578T 7.71 µM | 786-0 3.1 µM | MDA-MB-231 10 µM | SNB-19 10.1 µM | HOP-92 10.4 µM | EKVX 17.1 µM | CCRF-CEM 4.74 µM | UO-31 11 µM | MDA-MB-435 7.33 µM | UACC-62 10.5 µM | HOP-62 17.3 µM | SK-MEL-28 7.26 µM

CC1CC(=O)Nc2cc(Cl)ccc2N1C(=O)C1CC1 (configuration not stated)
inactive: OVCAR-3 > 100 µM | ACHN > 100 µM | DU-145 > 100 µM | SK-OV-3 > 100 µM | COLO 205 > 100 µM | PC-3 > 100 µM | RXF 393 > 100 µM | Hs-578T > 100 µM | 786-0 > 100 µM | MDA-MB-231 > 100 µM | SNB-19 > 100 µM | HOP-92 > 100 µM | EKVX > 100 µM | CCRF-CEM > 100 µM | UO-31 > 100 µM | MDA-MB-435 > 100 µM | HOP-62 > 100 µM | SK-MEL-28 > 100 µM

C/C(NC(=O)c1ccccc1)=C(/C(=O)c1ccccc1)[C@@H]1OC(C)(C)O[C@@H]1[C@H]1COC(C)(C)O1
inactive: OVCAR-3 32.9 µM | ACHN 67.3 µM | DU-145 44.7 µM | COLO 205 22.3 µM | PC-3 30.4 µM | RXF 393 30.2 µM | Hs-578T 27 µM | 786-0 18.3 µM | MDA-MB-231 23.7 µM | SNB-19 46.2 µM | HOP-92 19.4 µM | EKVX 16.4 µM | UO-31 15.5 µM | MDA-MB-435 19.5 µM | UACC-62 39.4 µM | HOP-62 33.1 µM | SK-MEL-28 52.4 µM

C=CC(=O)C#CC#CC/C=C\CCCCCCC
inactive: OVCAR-3 > 20.6 µM | ACHN > 20.6 µM | DU-145 > 20.6 µM | SK-OV-3 > 20.6 µM | SNB-75 > 20.6 µM | COLO 205 > 20.6 µM | RXF 393 > 11.3 µM | Hs-578T > 20.6 µM | 786-0 > 10.1 µM | MDA-MB-231 > 20.6 µM | SNB-19 > 15.5 µM | HOP-92 > 11.3 µM | EKVX > 20.6 µM | CCRF-CEM 4.9 µM | UO-31 > 20.6 µM | MDA-MB-435 > 20.6 µM | UACC-62 > 20.6 µM | HOP-62 > 10.1 µM | SK-MEL-28 > 20.6 µM
